Like-named read-outs stand apart in the source and are kept apart here.
Columns and labels:
Assay type in all cases: in vivo
[1] = test system: Zea mays (ZEAMX); details: crop plant compatibility, 80 g/ha, effect vs untreated controls
Procedure, shortened: (§1)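 Percent effect on the crop was judged by eye against untreated controls, where 0% means like control and 100% means dead plants. Plants had been sprayed post-emergence at the one-leaf stage and then kept under optimum greenhouse conditions for about 3 weeks.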

[2] = test system: Oryza sativa (ORYSA); details: crop plant compatibility
Procedure, shortened: as §1

[3] = test system: Digitaria sanguinalis (DIGSA); test: Pre-emergence herbicidal action against DIGSA
Text: (§2) Seeds of monocotyledonous and dicotyledonous weed plants and crop plants are placed in plastic or organic planting pots and covered with soil. The compounds of the invention, formulated in the form of wettable powders (WP) or as emulsion concentrates (EC), are then applied to the surface of the covering soil as aqueous suspension or emulsion with addition of 0.5% additive at a water application rate equivalent to 600 l/ha. After the treatment, the pots are placed in a greenhouse and kept under good growth conditions for the trial plants. After about 3 weeks, the effect of the preparations is scored visually in comparison with untreated controls as percentages. For example, 100% activity=the plants have died, 0% activity=like control plants.
Tables A1 to A13 below show the effects of selected compounds of the general formula (I) on various harmful plants and at an application rate corresponding to 320 g/ha or lower, which were obtained by the experimental procedure mentioned above. The appendices “a”, “b” and “c” give differentiation by dosage used with otherwise the same harmful plants tested.

[4] = test system: Matricaria inodora (MATIN); test: Post-emergence herbicidal action against MATIN
Procedure, shortened: (§3)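 Values are percent visual activity (0% like control, 100% plants dead) after about 3 weeks in the greenhouse. Treatment: post-emergence spray at one-leaf stage, 600 l/ha spray volume, 0.5% additive, doses 320 g/ha or lower.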

[5] = test system: Zea mays (ZEAMX); details: pre-emergence, 80 g/ha, crop plant compatibility, in comparison to untreated controls
Text: as §2
The observed effects on selected crop plants are reported here in comparison to the untreated controls (values in %). The appendices “a” “b” and “c” give differentiation by dosage used with otherwise the same crop plants tested.

[6] = test system: Amaranthus retroflexus (AMARE); test: Pre-emergence herbicidal action against AMARE; details: visual scoring after about 3 weeks vs untreated controls
Procedure, shortened: (§4)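 Pre-emergence soil-surface spray, WP/EC formulation, 0.5% additive, 600 l/ha water, rates of 320 g/ha or lower. Greenhouse, ~3 wk. Visual score, % of untreated control (100% = plants dead, 0% = like control).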

[7] = test system: Lolium rigidum (LOLRI); test: Pre-emergence herbicidal action against LOLRI
Procedure, shortened: as §4

[8] = test system: Viola tricolor (VIOTR); test: Post-emergence herbicidal action against VIOTR
Procedure, shortened: as §3

[9] = test system: Verconica persica (VERPE); test: Post-emergence herbicidal action against VERPE
Procedure, shortened: as §3

[10] = test system: Alopecurus myosuroides (ALOMY); test: Pre-emergence herbicidal action against ALOMY; details: scored visually after about 3 weeks, 100% = plants have died
Procedure, shortened: as §4

[11] = test system: Polygonum convolvulus (POLCO); test: Post-emergence herbicidal action against POLCO
Procedure, shortened: as §3

[12] = test system: Pharbitis purpurea (PHBPU); test: Post-emergence herbicidal action against PHBPU
Procedure, shortened: as §3

[13] = test system: Amaranthus retroflexus (AMARE); test: Post-emergence herbicidal action against AMARE
Procedure, shortened: as §3

[14] = test system: Verconica persica (VERPE); test: Pre-emergence herbicidal action against VERPE; details: dosage 320 g/ha
Procedure, shortened: as §4

[15] = test system: Echinochloa crus-galli (ECHCG); test: Post-emergence herbicidal action against ECHCG; details: dosage 80 g/ha
Procedure, shortened: as §3

[16] = test system: Setaria viridis (SETVI); test: Post-emergence herbicidal action against SETVI; details: dosage 80 g/ha
Procedure, shortened: as §3

[17] = test system: Matricaria inodora (MATIN); test: Pre-emergence herbicidal action against MATIN; details: dosage 320 g/ha
Procedure, shortened: as §4

[18] = test system: Setaria viridis (SETVI); test: Pre-emergence herbicidal action against SETVI
Procedure, shortened: as §4

[19] = test system: Alopecurus myosuroides (ALOMY); test: Post-emergence herbicidal action against ALOMY; details: 80 g/ha, visual rating about 3 weeks after treatment vs untreated controls (100% = plants have died, 0% = like control plants)
Procedure, shortened: as §3

[20] = test system: Pharbitis purpurea (PHBPU); test: Pre-emergence herbicidal action against PHBPU; details: dosage 320 g/ha
Procedure, shortened: as §4

[21] = test system: Polygonum convolvulus (POLCO); test: Pre-emergence herbicidal action against POLCO
Procedure, shortened: as §4

[22] = test system: Abutilon theophrasti (ABUTH); test: Post-emergence herbicidal action against ABUTH; details: 80 g/ha, visual rating about 3 weeks after treatment vs untreated controls (100% = plants have died, 0% = like control plants)
Procedure, shortened: as §3

[23] = test system: Echinochloa crus-galli (ECHCG); test: Pre-emergence herbicidal action against ECHCG; details: dosage 320 g/ha
Procedure, shortened: as §4

[24] = test system: Viola tricolor (VIOTR); test: Pre-emergence herbicidal action against VIOTR; details: 320 g/ha, Viola tricolor
Procedure, shortened: as §4

[25] = test system: Avena fatua (AVEFA); test: Pre-emergence herbicidal action against AVEFA; details: 320 g/ha, visual scoring after about 3 weeks vs untreated controls
Procedure, shortened: as §4

[26] = test system: Digitaria sanguinalis (DIGSA); test: Post-emergence herbicidal action against DIGSA; details: 80 g/ha, visual rating about 3 weeks after treatment
Procedure, shortened: as §3

[27] = 80 g/ha, effect in comparison to untreated controls
[28] = 320 g/ha, effect in comparison to untreated controls
[29] = 320 g/ha, visual rating about 3 weeks after treatment
[30] = 80 g/ha, visual rating about 3 weeks after treatment vs untreated controls (100% = plants have died, 0% = like control plants)

| Post-emergence action against ZEAMX in % [1] [%] | Post-emergence action against ORYSA in % [2, 27] [%] | Post-emergence action against ORYSA in % [2, 28] [%] | Pre-emergence action against ZEAMX in % [5] [%] | Compound | Pre-emergence action against DIGSA in % ([3]; dosage 320 g/ha) [%] | Pre-emergence action against AMARE in % ([6]; 320 g/ha) [%] | Pre-emergence action against LOLRI in % ([7]; dosage 320 g/ha) [%] | Post-emergence action against VIOTR in % ([8]; 320 g/ha) [%] | Post-emergence action against VERPE in % ([9]; 320 g/ha, VERPE) [%] | Pre-emergence action against ALOMY ([10]; 320 g/ha) [%] | Post-emergence action against POLCO in % ([11]; dosage 320 g/ha) [%] | Post-emergence action against PHBPU in % ([12]; dosage 80 g/ha) [%] | Post-emergence action against PHBPU in % ([12]; dosage 320 g/ha) [%] | Post-emergence action against AMARE in % [13, 29] [%] | Pre-emergence action against VERPE in % [14] [%] | Pre-emergence action against AMARE in % ([6]; 80 g/ha) [%] | Post-emergence action against AMARE in % [13, 30] [%] | further results |
| --- | --- | --- | --- | --- | --- | --- | --- | --- | --- | --- | --- | --- | --- | --- | --- | --- | --- | --- |
| 0 | 0 | 0 | 0 | CCOC(=O)COc1nn(-c2ccccn2)c(-c2ccc(Cl)nc2)c1Cl [Example I-241] | 90 | 90 | 90 | 80 | 80 | 80 | 80 | 80 | 90 | 80 | – | – | – | Post-emergence action against MATIN in % ([4]; dosage 320 g/ha): 80%; Post-emergence action against POLCO in % ([11]; dosage 80 g/ha): 80% |
| 20 | 0 | 0 | 0 | O=C(O)COc1nn(-c2ccccn2)c(-c2ccc(Cl)nc2)c1Br [Example I-235] | 90 | 90 | – | 80 | 80 | – | 80 | 80 | 80 | 80 | 80 | 80 | 80 | Post-emergence action against VIOTR in % ([8]; 80 g/ha): 80% |
| – | 0 | – | – | O=C(O)CNC(=O)COc1nn(-c2ccccn2)c(-c2ccc(F)nc2)c1Cl [Example I-118] | 100 | 100 | 100 | – | – | 100 | – | 80 | – | – | 90 | 90 | 90 | Post-emergence action against ECHCG in % [15]: 80%; Post-emergence action against SETVI in % [16]: 80%; Post-emergence action against ORYSA in % ([2]; 20 g/ha, effect vs untreated controls): 0%; Pre-emergence action against DIGSA in % ([3]; 80 g/ha, visual scoring after about 3 weeks vs untreated controls): 100%; Pre-emergence action against MATIN in % [17]: 90%; Post-emergence action against MATIN in % ([4]; dosage 80 g/ha): 80%; Pre-emergence action against SETVI in % ([18]; dosage 80 g/ha): 90%; Pre-emergence action against SETVI in % ([18]; dosage 320 g/ha): 100%; Post-emergence action against ALOMY in % [19]: 100%; Pre-emergence action against PHBPU in % [20]: 90%; Pre-emergence action against LOLRI in % ([7]; dosage 80 g/ha): 90%; Post-emergence action against VERPE in % ([9]; dosage 80 g/ha): 90%; Pre-emergence action against ALOMY ([10]; 80 g/ha): 90%; Pre-emergence action against POLCO in % ([21]; dosage 80 g/ha): 80%; Pre-emergence action against POLCO in % ([21]; dosage 320 g/ha): 90%; Post-emergence action against ABUTH in % [22]: 80%; Pre-emergence action against ECHCG in % [23]: 100%; Pre-emergence action against VIOTR in % [24]: 100%; Pre-emergence action against AVEFA in % [25]: 90%; Post-emergence action against DIGSA in % [26]: 80% |
